Results: US20180099931A1 (AbbVie S.à.r.l., priority 2016, published 2018)
Read-outs that look alike come from different tables or passages of the source.

Biological target: T1, F508delCFTR (Homo sapiens, UniProt P13569, DEL508-508)
T1 construct: expressed in transfected cells; host or cells: CFBE41o- human lung-derived epithelial cells (CFBE4lo-F508delCFTR-HRP), doxycycline-inducible
Experiment: Cell Surface Expression-Horse Radish Peroxidase (CSE-HRP) Assay;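 for Maximum % activity (with co-corrector): co-corrector and positive control are both the same reference corrector at 2 µM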;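 for Maximum % activity (without co-corrector): percent of the 2 µM on-plate positive control corrector response above DMSO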
Assay type: cell-based
Details: for Maximum % activity (with co-corrector) / Emax: maximum at any tested concentration, normalized to on-plate positive control; for Emax: read-out: Maximum % activity (without co-corrector)

[1] = CSE-HRP, test compound without co-corrector, read-out: EC50 (without co-corrector)
[2] = CSE-HRP, with co-corrector (2 μM of 3-[(2R,4R)-4-({[1-(2,2-difluoro-1,3-benzodioxol-5-yl)cyclopropyl]carbonyl}amino)-7-methoxy-3,4-dihydro-2H-chromen-2-yl]benzoic acid), read-out: EC50 (with co-corrector)
[3] = CSE-HRP, with co-corrector (2 μM)
[4] = test compound without co-corrector
[5] = test compound without co-corrector, read-out: EC50 (without co-corrector)
[6] = with co-corrector (2 μM of 3-[(2R,4R)-4-({[1-(2,2-difluoro-1,3-benzodioxol-5-yl)cyclopropyl]carbonyl}amino)-7-methoxy-3,4-dihydro-2H-chromen-2-yl]benzoic acid), read-out: EC50 (with co-corrector)
[7] = with co-corrector (2 μM of 3-[(2R,4R)-4-({[1-(2,2-difluoro-1,3-benzodioxol-5-yl)cyclopropyl]carbonyl}amino)-7-methoxy-3,4-dihydro-2H-chromen-2-yl]benzoic acid)

T1 sequence (P13569 with tags, fused parts or gaps DEL508-508): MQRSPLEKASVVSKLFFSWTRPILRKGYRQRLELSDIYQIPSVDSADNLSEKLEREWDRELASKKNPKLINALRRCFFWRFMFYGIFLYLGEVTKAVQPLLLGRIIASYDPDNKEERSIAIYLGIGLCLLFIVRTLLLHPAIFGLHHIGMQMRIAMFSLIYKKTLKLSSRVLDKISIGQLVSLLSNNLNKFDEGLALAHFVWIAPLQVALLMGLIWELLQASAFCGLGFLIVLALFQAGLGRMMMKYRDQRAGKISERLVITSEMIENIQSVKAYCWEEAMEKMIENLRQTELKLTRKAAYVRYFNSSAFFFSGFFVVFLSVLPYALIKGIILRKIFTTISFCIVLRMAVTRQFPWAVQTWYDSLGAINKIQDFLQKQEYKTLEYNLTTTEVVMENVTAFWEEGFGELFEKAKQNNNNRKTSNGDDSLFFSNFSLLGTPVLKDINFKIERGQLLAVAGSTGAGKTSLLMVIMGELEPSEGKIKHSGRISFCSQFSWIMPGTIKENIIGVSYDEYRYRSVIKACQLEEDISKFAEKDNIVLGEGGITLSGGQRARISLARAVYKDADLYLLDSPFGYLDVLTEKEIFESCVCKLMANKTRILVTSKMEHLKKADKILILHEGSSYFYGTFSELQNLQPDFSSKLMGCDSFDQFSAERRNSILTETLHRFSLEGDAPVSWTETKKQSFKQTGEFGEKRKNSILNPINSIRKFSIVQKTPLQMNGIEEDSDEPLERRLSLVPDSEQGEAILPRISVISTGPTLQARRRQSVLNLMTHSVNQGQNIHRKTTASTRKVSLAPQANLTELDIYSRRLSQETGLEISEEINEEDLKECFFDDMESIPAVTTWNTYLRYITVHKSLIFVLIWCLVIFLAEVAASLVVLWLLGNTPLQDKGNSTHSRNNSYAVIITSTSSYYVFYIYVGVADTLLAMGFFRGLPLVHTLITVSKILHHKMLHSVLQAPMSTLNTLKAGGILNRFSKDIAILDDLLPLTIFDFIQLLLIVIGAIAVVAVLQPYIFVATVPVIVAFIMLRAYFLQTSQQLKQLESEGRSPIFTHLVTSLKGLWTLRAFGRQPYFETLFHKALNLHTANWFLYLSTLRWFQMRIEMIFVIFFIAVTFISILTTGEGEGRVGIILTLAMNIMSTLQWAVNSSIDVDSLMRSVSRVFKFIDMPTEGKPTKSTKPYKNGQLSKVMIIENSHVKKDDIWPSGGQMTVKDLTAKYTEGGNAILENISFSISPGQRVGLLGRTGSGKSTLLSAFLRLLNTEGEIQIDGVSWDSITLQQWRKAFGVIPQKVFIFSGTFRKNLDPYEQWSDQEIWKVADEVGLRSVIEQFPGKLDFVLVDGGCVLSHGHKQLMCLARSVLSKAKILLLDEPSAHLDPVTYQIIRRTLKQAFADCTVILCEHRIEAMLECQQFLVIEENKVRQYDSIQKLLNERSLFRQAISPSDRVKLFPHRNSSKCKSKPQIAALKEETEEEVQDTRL

| SMILES | EC50 [1] [nM] | EC50 [2] [nM] | Maximum % activity (with co-corrector) [3] | Emax (CSE-HRP, without co-corrector) [%] | Emax [4] [%] | EC50 [5] [nM] | EC50 [6] [nM] | Maximum % activity (with co-corrector) (with co-corrector (2 μM)) | Emax (without co-corrector) [%] | Maximum % activity (with co-corrector) [7] |
| --- | --- | --- | --- | --- | --- | --- | --- | --- | --- | --- |
| COc1ccc(C(C)(C)C)cc1CN[C@H]1[C@H](C(C)(C)C)[C@@H](C(=O)O)N(C(=O)Cc2cc(F)ccc2F)[C@H]1c1ccccc1 [II-202] | < 1000 | < 1000 | +++ (≥350) | > 200 |  |  |  |  |  |  |
| COc1ccc(C(C)(C)C)cc1CN[C@H]1[C@H](C(C)(C)C)[C@@H](C(=O)O)N(C(=O)C2Cc3ccccc3O2)[C@H]1c1cccnc1N(C)C (single isomer, unassigned) [Example 36, (2S,3S,4S,5S)-3-tert-butyl-4-{[(5-tert-butyl-2-methoxyphenyl)methyl]amino}-1-[(2S*)-2,3-dihydro-1-benzofuran-2-carbonyl]-5-[2-(dimethylamino)pyridin-3-yl]pyrrolidine-2-carboxylic acid] |  |  |  |  |  | < 1000 | < 1000 | +++ (≥350) | 100 to 200 |  |
| COc1ccc(C(C)(C)C)cc1CN[C@H]1[C@H](C(C)(C)C)[C@@H](C(=O)O)N(C(=O)[C@H]2OCC[C@H]2c2ccccc2)[C@H]1c1ccccc1 (relative stereo) [Example I-179] |  |  |  |  |  | 1000 to 10000 | 1000 to 10000 | +++ (≥350) | 100 to 200 |  |
| COc1cc(Cl)ccc1CN[C@@H]1[C@@H](C(C)(C)C)[C@H](C(=O)O)N(C(=O)C2CCCOC2)[C@@H]1c1ccccc1N(C)C (mixture of isomers) [II-23] | 1000 to 10000 | 1000 to 10000 | +++ (≥350) | 100 to 200 |  |  |  |  |  |  |
| COc1cc(C(F)(F)F)ccc1CN[C@H]1[C@H](C(C)(C)C)[C@@H](C(=O)O)N(C(=O)[C@@H]2CCCCO2)[C@H]1c1ccccc1 [Example 10, (2S,3S,4S,5S)-3-tert-butyl-4-({[2-methoxy-4-(trifluoromethyl)phenyl]methyl}amino)-1-[(2S)-oxane-2-carbonyl]-5-phenylpyrrolidine-2-carboxylic acid] |  |  |  |  |  | 1000 to 10000 | 1000 to 10000 | +++ (≥350) | > 200 |  |
| COc1ccc(C(C)(C)C)cc1CN[C@H]1[C@H](C(C)(C)C)[C@@H](C(=O)O)N(C(=O)CC2CCCC2(F)F)[C@H]1c1ccccc1 (stereo partly drawn) [II-219] | 1000 to 10000 | < 1000 | +++ (≥350) | > 200 |  |  |  |  |  |  |
| COc1cc(Cl)ccc1CN[C@H]1[C@H](C(C)(C)C)[C@@H](C(=O)O)N(C(=O)C2CCCCC2)[C@H]1c1ccccc1 [II-99] | 1000 to 10000 | 1000 to 10000 | +++ (≥350) | 100 to 200 |  |  |  |  |  |  |
| COc1ccc(C)cc1CN[C@@H]1[C@@H](C(C)(C)C)[C@H](C(=O)O)N(C(=O)OC(C)C)[C@@H]1c1ccccc1 (racemic) [II-40] | 1000 to 10000 | 1000 to 10000 | +++ (≥350) | 100 to 200 |  |  |  |  |  |  |
| COc1cc(C(C)(C)C)ccc1CN[C@H]1[C@H](C(C)(C)C)[C@@H](C(=O)O)N(C(=O)C2CCCCC2)[C@H]1c1cccnc1N(C)C [II-102] | 1000 to 10000 | < 1000 | +++ (≥350) | 100 to 200 |  |  |  |  |  |  |
| COc1ccc(C(C)(C)C)cc1CN[C@H]1[C@H](C(C)(C)C)[C@@H](C(=O)O)N(C(=O)CC2CCOc3ccccc32)[C@H]1c1ccccc1 (stereo partly drawn) [II-213] | 1000 to 10000 | 1000 to 10000 | +++ (≥350) | 100 to 200 |  |  |  |  |  |  |
| COc1cc(C(F)(F)F)ccc1CN[C@@H]1[C@@H](C(C)(C)C)[C@H](C(=O)O)N(C(=O)C(C)Oc2ccccc2)[C@@H]1c1ccccc1 (single isomer, unassigned) [II-67] | 1000 to 10000 |  | ++ (≥150 and <350) |  |  |  |  |  |  |  |
| COc1ccc(C(C)(C)C)cc1CN[C@H]1[C@H](C(C)(C)C)[C@@H](C(=O)O)N(C(=O)[C@@H](C)[C@@H]2CCCCO2)[C@H]1c1ccccc1 (relative stereo) [Example I-195] |  |  |  |  |  | 1000 to 10000 | 1000 to 10000 | +++ (≥350) | > 200 |  |
| COc1ncc(C2CCC2)cc1CN[C@H]1[C@H](C(C)(C)C)[C@@H](C(=O)O)N(C(=O)[C@@H]2CCCO2)[C@H]1c1ccccc1C(C)C [Example 89, (2S,3S,4S,5S)-3-tert-butyl-4-{[(5-cyclobutyl-2-methoxypyridin-3-yl)methyl]amino}-1-[(2S)-oxolane-2-carbonyl]-5-[2-(propan-2-yl)phenyl]pyrrolidine-2-carboxylic acid] |  |  |  |  |  | 1000 to 10000 | < 1000 | +++ (≥350) | > 200 |  |
| COc1cc2c(cc1CN[C@H]1[C@H](C(C)(C)C)[C@@H](C(=O)O)N(C(=O)C3CCCCC3)[C@H]1c1ccccc1)CCCC2 [II-125] | 1000 to 10000 | < 1000 | +++ (≥350) | > 200 |  |  |  |  |  |  |
| COc1cc(C(F)(F)F)ccc1CN[C@H]1[C@H](C(C)(C)C)[C@@H](C(=O)O)N(C(=O)OC(C)C)[C@H]1c1cccnc1OC(C)C [Example 81, (2S,3S,4S,5S)-3-tert-butyl-4-({[2-methoxy-4-(trifluoromethyl)phenyl]methyl}amino)-1-{[(propan-2-yl)oxy]carbonyl}-5-{2-[(propan-2-yl)oxy]pyridin-3-yl}pyrrolidine-2-carboxylic acid] |  |  |  |  |  | 1000 to 10000 | 1000 to 10000 | +++ (≥350) | 100 to 200 |  |
| COc1cc(Cl)ccc1CN[C@@H]1[C@@H](C(C)(C)C)[C@H](C(=O)O)N(C(=O)C2CCOC(C)(C)C2)[C@@H]1c1ccccc1N(C)C (mixture of isomers) [II-26] | 1000 to 10000 | 1000 to 10000 | +++ (≥350) | > 200 |  |  |  |  |  |  |

Results, then the molecule that gave them:

| EC50 [1] [nM] | EC50 [2] [nM] | Maximum % activity (with co-corrector) [3] | Emax (CSE-HRP, without co-corrector) [%] | Emax [4] [%] | EC50 [5] [nM] | EC50 [6] [nM] | Maximum % activity (with co-corrector) (with co-corrector (2 μM)) | Emax (without co-corrector) [%] | Maximum % activity (with co-corrector) [7] | SMILES |
| --- | --- | --- | --- | --- | --- | --- | --- | --- | --- | --- |
| 1000 to 10000 | < 1000 | +++ (≥350) | > 200 |  |  |  |  |  |  | COc1nc2ccccc2cc1CN[C@H]1[C@H](C(C)(C)C)[C@@H](C(=O)O)N(C(=O)C2CCCCC2)[C@H]1c1ccccc1 [II-244] |
|  |  |  |  | > 200 | 1000 to 10000 | < 1000 | +++ (≥350) |  |  | COc1ccc(C(C)(C)C)cc1CN[C@H]1[C@H](C(C)(C)C)[C@@H](C(=O)O)N(C(=O)CC2CCCCC2)[C@H]1c1ccccc1 [III-167] |
| 1000 to 10000 | 1000 to 10000 | +++ (≥350) | > 200 |  |  |  |  |  |  | COc1ccc(C(C)(C)C)cc1CN[C@H]1[C@H](C(C)(C)C)[C@@H](C(=O)O)N(C(=O)C2CC(C)C2)[C@H]1c1ccccc1 (stereo partly drawn) [II-306] |
|  |  |  |  | 100 to 200 | 1000 to 10000 | 1000 to 10000 |  |  | +++ (≥350) | CC(C)(C)[C@H]1[C@H](NCC2(c3ccc4c(c3)OC(F)(F)O4)CC2)[C@H](c2ccccc2)N(C(=O)C2CCCCC2)[C@@H]1C(=O)O [II-499] |
|  |  |  |  | > 200 | < 1000 | < 1000 | +++ (≥350) |  |  | CCC(CC)Cc1ccc(OC)c(CN[C@H]2[C@H](C(C)(C)C)[C@@H](C(=O)O)N(C(=O)C3CCCCC3)[C@H]2c2ccccc2)c1 [III-170] |
|  |  |  |  | < 100 | 1000 to 10000 | 1000 to 10000 |  |  | ++ (≥150 and <350) | COc1nc2ccccc2cc1CN[C@H]1[C@H](C(C)(C)C)[C@@H](C(=O)O)N(C(=O)C2CCOCC2)[C@H]1c1cccnc1N(C)C [II-600] |
|  |  |  |  | > 200 | 1000 to 10000 | < 1000 |  |  | +++ (≥350) | CCCCOC(=O)N1[C@H](C(=O)O)[C@@H](C(C)(C)C)[C@H](NCc2cc(C(C)(C)C)ccc2OC)[C@@H]1c1ccccc1 [II-383] |
|  |  |  |  | < 100 | > 10000 | 1000 to 10000 |  |  | ++ (≥150 and <350) | COCCn1cc(C(F)(F)F)cc(CN[C@H]2[C@H](C(C)(C)C)[C@@H](C(=O)O)N(C(=O)C3CCCCC3)[C@H]2c2ccccc2)c1=O (racemic) [III-65] |
|  |  |  |  | > 200 | 1000 to 10000 | 1000 to 10000 |  |  | +++ (≥350) | COc1ccc(C(C)(C)C)cc1CN[C@H]1[C@H](C(C)(C)C)[C@@H](C(=O)O)N(C(=O)C2CC3C(CC2C)C3(C)C)[C@H]1c1ccccc1 (stereo partly drawn) [II-376] |
|  |  |  |  | < 100 | > 10000 | 1000 to 10000 | ++ (≥150 and <350) |  |  | COc1cc(CN[C@H]2[C@H](C(C)(C)C)[C@@H](C(=O)O)N(C(=O)C3CCCCC3)[C@H]2c2ccccc2)cc(OC)c1 [III-133] |
|  |  |  |  | < 100 | 1000 to 10000 | 1000 to 10000 | +++ (≥350) |  |  | Cc1cc(C)c(C#N)c(N[C@H]2[C@H](C(C)(C)C)[C@@H](C(=O)O)N(C(=O)C3CCCCC3)[C@H]2c2ccccc2)n1 [III-148] |
|  |  |  |  | > 200 | < 1000 | < 1000 |  |  | +++ (≥350) | COc1ccc(C(C)(C)C)cc1CN[C@H]1[C@H](C(C)(C)C)[C@@H](C(=O)O)N(C(=O)C2CCCCC2C(F)(F)F)[C@H]1c1ccccc1 (stereo partly drawn) [II-378] |
|  |  |  |  | < 100 | 1000 to 10000 | 1000 to 10000 |  |  | ++ (≥150 and <350) | COc1ncc(C(F)(F)F)cc1N[C@H]1[C@H](C(C)(C)C)[C@@H](C(=O)O)N(C(=O)C2CCCCC2)[C@H]1c1cccnc1N(C)C [II-461] |
